Laboratory results from the Kinase Knowledgebase extract (Sharma et al. 2016).

Each molecule was assayed against CDK2 (human) (UniProt P24941) (assay: Enzyme Assay). Conditions: not given.

Row | IC50 [µM] | Structure (SMILES)
1 | > 20 | CCN(CC)CCCNC(=O)c1c(C)[nH]c(/C=C2\C(=O)Nc3ccc(Br)cc32)c1-c1ccccc1

These molecules were tested against EGFR (human) (UniProt P00533) (assay: not given). Conditions: not given.
EGFR (human), sequence (P00533 whole entry, looked up): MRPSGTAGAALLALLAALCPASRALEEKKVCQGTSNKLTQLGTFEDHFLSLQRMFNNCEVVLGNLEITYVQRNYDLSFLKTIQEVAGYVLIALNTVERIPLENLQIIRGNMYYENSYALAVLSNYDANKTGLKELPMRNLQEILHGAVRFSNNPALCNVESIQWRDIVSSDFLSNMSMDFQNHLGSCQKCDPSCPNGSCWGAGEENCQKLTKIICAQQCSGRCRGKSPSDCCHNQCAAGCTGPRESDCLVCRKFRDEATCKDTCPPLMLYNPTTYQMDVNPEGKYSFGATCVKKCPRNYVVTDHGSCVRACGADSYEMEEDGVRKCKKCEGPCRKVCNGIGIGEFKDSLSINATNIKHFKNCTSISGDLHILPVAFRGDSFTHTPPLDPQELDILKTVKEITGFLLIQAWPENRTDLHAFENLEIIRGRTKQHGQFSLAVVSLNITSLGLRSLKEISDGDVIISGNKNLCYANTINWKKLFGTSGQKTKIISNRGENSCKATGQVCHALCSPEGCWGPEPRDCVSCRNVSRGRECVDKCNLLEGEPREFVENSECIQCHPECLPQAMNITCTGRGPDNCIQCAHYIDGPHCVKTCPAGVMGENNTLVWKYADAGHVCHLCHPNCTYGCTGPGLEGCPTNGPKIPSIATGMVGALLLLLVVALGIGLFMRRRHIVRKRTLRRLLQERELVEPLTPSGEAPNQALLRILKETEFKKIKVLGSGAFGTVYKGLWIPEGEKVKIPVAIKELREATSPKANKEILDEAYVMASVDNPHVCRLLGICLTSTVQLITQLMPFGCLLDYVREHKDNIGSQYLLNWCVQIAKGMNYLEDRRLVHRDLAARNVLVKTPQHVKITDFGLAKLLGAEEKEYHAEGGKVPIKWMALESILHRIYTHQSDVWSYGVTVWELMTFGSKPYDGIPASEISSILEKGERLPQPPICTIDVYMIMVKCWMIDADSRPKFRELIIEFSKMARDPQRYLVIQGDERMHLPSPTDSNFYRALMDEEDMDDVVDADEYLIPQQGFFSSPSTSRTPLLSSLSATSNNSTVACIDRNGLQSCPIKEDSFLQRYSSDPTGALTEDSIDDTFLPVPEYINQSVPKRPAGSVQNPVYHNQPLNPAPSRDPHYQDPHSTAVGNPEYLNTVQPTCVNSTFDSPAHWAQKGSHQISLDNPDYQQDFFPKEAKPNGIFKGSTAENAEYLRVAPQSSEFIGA

Row | IC50 [µM] | Structure (SMILES)
2 | > 100 | Cc1c(C(=O)NCCCN2CCOCC2)[nH]c(/C=C2\C(=O)Nc3ccc(Br)cc32)c1C(=O)c1ccccc1
3 | > 100 | Cc1[nH]c(/C=C2\C(=O)Nc3ccc(-c4ccccc4)cc32)c(C)c1C(=O)NCCCn1ccnc1
4 | > 100 | COc1ccccc1-c1ccc2c(c1)NC(=O)/C2=C\c1[nH]c(C)c(C(=O)NCCN(C)C)c1-c1ccccc1
5 | > 100 | COc1ccccc1-c1ccc2c(c1)NC(=O)/C2=C\c1[nH]c(C)c(C(=O)NCCN2CCCC2)c1-c1ccccc1
6 | > 100 | CCN(CC)CCCNC(=O)c1c(C)[nH]c(/C=C2\C(=O)Nc3cc(-c4ccccc4)ccc32)c1C
7 | > 100 | Cc1[nH]c(/C=C2\C(=O)Nc3cc(-c4ccccc4)ccc32)c(C)c1C(=O)NCCN(C)C

More lines, now with the values behind:

Row | Structure (SMILES) | IC50 [µM]
8 | Cc1[nH]c(/C=C2\C(=O)Nc3ccc(S(=O)(=O)N(C)C)cc32)c(C)c1C(=O)NCCN1CCCC1 | > 100
9 | CCN(CC)CCNC(=O)c1c(C)[nH]c(/C=C2\C(=O)Nc3cc(-c4cc(Cl)cc(Cl)c4)ccc32)c1C | > 100
10 | CCN(CC)CCNC(=O)c1c(C)[nH]c(/C=C2\C(=O)Nc3ccc(S(=O)(=O)N(C)C)cc32)c1C | > 100
11 | CCOC(=O)CNC(=O)c1c[nH]c(/C=C2\C(=O)Nc3ccc(S(=O)(=O)NC)cc32)c1C | > 100
12 | CNS(=O)(=O)c1ccc2c(c1)/C(=C/c1[nH]cc(C(=O)O)c1C)C(=O)N2 | > 100
13 | CCN(CC)CCCNC(=O)c1[nH]c(/C=C2\C(=O)Nc3ccc(OC)cc32)cc1C | > 100
14 | Cc1[nH]c(/C=C2\C(=O)Nc3ccc(Cl)cc32)c(C)c1C(=O)NCCN(C)C | > 100
15 | CCN(CC)CCNC(=O)c1c(C(C)C)[nH]c(/C=C2\C(=O)Nc3ccc(Br)cc32)c1C(C)C | > 100
16 | CCOC(=O)CNC(=O)c1c[nH]c(/C=C2\C(=O)Nc3ccc(S(=O)(=O)NC)c(C)c32)c1C | > 100
17 | CNS(=O)(=O)c1ccc2c(c1)/C(=C/c1[nH]cc(C(=O)NCC(=O)O)c1C)C(=O)N2 | > 100
18 | CCN(CC)CCCNC(=O)c1c(C)[nH]c(/C=C2\C(=O)Nc3cccc(C(=O)Nc4ccc(OC)c(Cl)c4)c32)c1C | > 100
19 | CCN(CC)CCCNC(=O)c1[nH]c(/C=C2\C(=O)Nc3cc(OC)ccc32)cc1C | > 100

Each molecule was assayed against EGFR (murine) (UniProt P00533) (assay: not given). Conditions: nih3t3/c7.
EGFR (murine), sequence (P00533 whole entry, looked up): as above

Row | IC50 [µM] | Structure (SMILES)
20 | > 100 | Cc1[nH]c(/C=C2\C(=O)Nc3ccc(Br)cc32)c(C)c1C(=O)NCCCn1ccnc1
21 | > 100 | Cc1[nH]c(/C=C2\C(=O)Nc3cc(-c4ccccc4)ccc32)c(C)c1C(=O)NCCCn1ccnc1
22 | > 100 | Cc1[nH]c(/C=C2\C(=O)Nc3ccc(-c4ccccc4)cc32)c(C)c1C(=O)NCCCn1ccnc1
23 | > 100 | Cc1[nH]c(/C=C2\C(=O)Nc3cc(-c4ccccc4)ccc32)c(C)c1C(=O)NCCN1CCCC1
24 | > 100 | CCN(CC)CCNC(=O)c1c(C)[nH]c(/C=C2\C(=O)Nc3cc(-c4ccccc4)ccc32)c1C
25 | > 100 | CCOC(=O)c1cc(C)c(/C=C2\C(=O)Nc3ccc(Cl)cc32)[nH]1
26 | > 100 | CCOC(=O)c1c(C)[nH]c(/C=C2\C(=O)Nc3ccc(Br)cc32)c1-c1ccccc1

Second part, the molecule before the results:

Row | Structure (SMILES) | IC50 [µM]
27 | Cc1[nH]c(/C=C2\C(=O)Nc3ccc(Br)cc32)c(C)c1C(=O)NCCN1CCCC1 | > 100
28 | CCN(CC)CCNC(=O)c1c(C)[nH]c(/C=C2\C(=O)Nc3cc(-c4cc(Cl)cc(Cl)c4)ccc32)c1C | > 100
29 | Cc1[nH]c(/C=C2\C(=O)Nc3cc(-c4cccnc4)ccc32)c(C)c1C(=O)NCCN1CCCC1 | > 100
30 | COC(=O)c1cc(C)c(/C=C2\C(=O)Nc3ccccc32)[nH]1 | > 100
31 | Cc1cc(C(=O)O)[nH]c1/C=C1\C(=O)N(C)c2ccccc21 | > 100
32 | Cc1cc(C(=O)O)[nH]c1/C=C1\C(=O)Nc2ccccc21 | > 100
33 | Cc1cc(C(=O)O)[nH]c1/C=C1\C(=O)Nc2ccc(Cl)cc21 | > 100
34 | CCN(CC)CCNC(=O)c1c(C)[nH]c(/C=C2\C(=O)Nc3cc(-c4cccnc4)ccc32)c1C | > 100
35 | CCN(CC)CCNC(=O)c1ccc(/C=C2\C(=O)Nc3cc(-c4ccccc4)ccc32)[nH]1 | > 100
36 | CCN(CC)CCN(C)C(=O)c1ccc(/C=C2\C(=O)Nc3cc(-c4ccccc4)ccc32)[nH]1 | > 100
